Drawing on the METLIN SMRT retention time set (Domingo-Almenara et al. 2019), this text covers RP-LC retention time for 79 compounds.

This data set is described as follows: gradient 5% acetonitrile 3 min, to 50% in 2 min, to 85% in 15 min, held 3 min, 100 µL/min. Particulars: column: Zorbax Extend-C18 2.1 x 50 mm; eluents: water / acetonitrile, 0.1% formic acid. In a few lines:
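The system's dead and dwell volumes were 40 μL and 900 μL, with a Zorbax Extend-C18 column (2.1 × 50 mm, 1.8 μm) run at 100 μL/min in water and acetonitrile containing 0.1% formic acid each. Pure standards were analyzed in mixtures of ~100 molecules by HPLC–quadrupole time-of-flight mass spectrometry in positive and negative ionization mode. Retention time was assigned from computationally picked, manually inspected adduct peaks.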
On to `Cc1oc(-c2[nH]ncc2C(=O)N(C)C)cc1S(=O)(=O)Nc1ccccc1F`, for which the RP-LC retention time stood at 658 s.

Consider `CCC1=NS(=O)(=O)c2cccnc2N1c1ccc2c(c1)OCCO2`, for which the RP-LC retention time was found to be 800 s.

Compound `CCC(CC)N1CCN(C(=O)c2nc(N3CCSCC3)c3cn(C)nc3n2)CC1` had an RP-LC retention time of 574 s.

For `CCCc1ccc(S(=O)(=O)N2CCC(c3nc4ccncc4n3CCOC)C2)cc1` (centres undefined), the RP-LC retention time worked out at 610 s.

The compound `COCC(=O)NCC12CCCC=C1NC(=O)CC2` (centres undefined) yielded an RP-LC retention time of 605 s.

The compound `Clc1ccc(-c2nc(N3CCCCC3)c3ccccc3n2)cc1` gave an RP-LC retention time of 818 s.

As for `Cn1nc(-c2nc(C3CC3)no2)c2c1CCN(C(=O)c1ccc(F)c(Cl)c1)C2`, the RP-LC retention time worked out at 900 s.

The compound `COc1ccccc1-n1nnc(C(=O)OCc2nc(-c3cccc(Cl)c3)oc2C)c1C` showed an RP-LC retention time of 1160 s.

`COc1cc(-c2noc(Cc3nnc(-c4cc(C)cc(C)c4)o3)n2)cc(OC)c1OC`: the RP-LC retention time came out at 1050 s.

Take `CNC(=O)C1CCN(c2nc3ccc(-c4ccncc4)nc3s2)CC1`: the RP-LC retention time stood at 568 s.

`CN(CCc1noc(C2CN(Cc3cccc(C(F)(F)F)c3)C2)n1)S(C)(=O)=O` yielded an RP-LC retention time of 643 s.

On to `Cc1cccc(-c2noc(Cc3nnc(-c4ccccc4)o3)n2)c1`, for which the RP-LC retention time came to 1030 s.

Turning to `Cc1cccc(CNC(=O)c2nnc(-c3ccc(S(=O)(=O)N(C)C)cc3)o2)c1`, the RP-LC retention time amounted to 894 s.

`O=C(C1CCN(c2cnc3nccnc3c2)CC1)N1CCN(c2ccc(F)cc2)CC1` had an RP-LC retention time of 723 s.

`O=C(NCCc1ccccc1)Nc1ccccc1NC(=O)c1ccsc1` came in with an RP-LC retention time of 796 s.

Take `CC(=O)c1cccc(NC(=O)c2noc3c2CCCCC3)c1`: the RP-LC retention time was determined as 977 s.

Compound `Cc1ccccc1CSc1nnc(-c2ccccc2Cl)o1` returned an RP-LC retention time of 1180 s.

Take `O=S(=O)(c1ccc(Cl)cc1)N1CCN(c2ccnc3cc(Cl)ccc23)CC1`: the RP-LC retention time was 758 s.

As for `Cc1noc([C@@H]2CN(Cc3ccc(OC(F)(F)F)cc3)C[C@H]2CO)n1`, the RP-LC retention time is 643 s.

In turn, `Clc1ccc(-c2nc3ccc(Cl)cn3c2Nc2ccc3c(c2)OCCO3)cc1` had an RP-LC retention time of 915 s.

As for `O=C(Cn1ccn2nc(-c3ccc(F)cc3)c(CO)c2c1=O)Nc1ccc(F)c(F)c1`, the RP-LC retention time was found to be 865 s.

`COc1cccc(CNC(=O)Cn2c(N3CCCC3)nc(C)cc2=O)c1` registered an RP-LC retention time of 770 s.

With `Cc1cc(NC(=O)c2nc(C(C)C)oc2C)ccc1F`, the RP-LC retention time was 1140 s.

For `COc1ccc(C(=O)N2CCC3(CC2)N=C(c2cccc(Br)c2)NO3)c(OC)c1`, the RP-LC retention time amounted to 832 s.

Compound `Cc1nc2c(c(C)c1CCC(=O)NCC1CCN(CC(C)C)C1)c(=O)n(C)c(=O)n2C` (centres undefined) showed an RP-LC retention time of 610 s.

`Cc1ccccc1NC(=O)C1CCCN(C(=O)c2nn(C)c3c2CN(C(=O)C(C)(C)C)CC3)C1` (centres undefined) yielded an RP-LC retention time of 802 s.

As to `Cc1nc(C)c(C(=O)N2CCC(c3noc(-c4ccccn4)n3)C2)s1` (centres undefined), the RP-LC retention time was 648 s.

On to `COc1ccc(Cl)cc1NS(=O)(=O)c1c[nH]c2ncccc12`, for which the RP-LC retention time was found to be 763 s.

In turn, `CCOc1ccc2nc(C(=O)Nc3ccc(N4CCOCC4)cc3)cn2n1` displayed an RP-LC retention time of 767 s.

`Cc1ccc(-c2cc(C(=O)N3CCN(c4ccccn4)CC3)nn2C2CCS(=O)(=O)C2)cc1C` (centres undefined) displayed an RP-LC retention time of 674 s.

On to `Cc1ccccc1CNC(=O)CC1CCN(C(=O)c2[nH]c(C)c(C(=O)OC(C)C)c2C)CC1`, for which the RP-LC retention time is 853 s.

The compound `COc1cccc(-c2noc(Cn3c(=O)n(-c4ccc(C)cc4)c(=O)c4sccc43)n2)c1` showed an RP-LC retention time of 1030 s.

As to `O=C(NC1CC1)C1CC(=O)N(c2ccc3c(c2)CCN3C(=O)C2CC2)C1` (centres undefined), the RP-LC retention time came out at 630 s.

On to `O=C(c1ccc(-n2cnnn2)cc1)N1CCN(c2ccccn2)CC1`, for which the RP-LC retention time came out at 567 s.

Turning to `Cc1ccc(NC(=O)C2CCN(S(=O)(=O)c3cn(C(C)C)cn3)CC2)cc1C`, the RP-LC retention time was 819 s.

Take `COc1ccc2c(=O)cc(-c3cccnc3)oc2c1OC`: the RP-LC retention time came to 763 s.

`COc1ccc(N2C(=O)CCC(C(=O)NC3CCCCCC3)C2c2ccc(F)cc2)cc1` (centres undefined) displayed an RP-LC retention time of 839 s.

In turn, `O=C(NCc1ccco1)C1CCCN(C(=O)c2cccn2-c2cccnc2)C1` (centres undefined) came in with an RP-LC retention time of 600 s.

`c1ccc(-c2nc(C3CCOCC3)no2)c(OC2CCN(C3CCCC3)C2)c1` (centres undefined) displayed an RP-LC retention time of 661 s.

`CCOC(=O)c1c(C)[nH]c(C(=O)N2CCCC(C(=O)NCCCN3CCN(CC)CC3)C2)c1C` (centres undefined) showed an RP-LC retention time of 579 s.

In the case of `COc1cccc(N2CCN(CC(O)c3ccc4c(c3)OCO4)CC2)c1` (centres undefined), the RP-LC retention time turned out to be 640 s.

In turn, `CCn1cc(-c2nc(-c3ccc(Cl)cc3)no2)c(=O)c2cc(F)c(N3CCOCC3)cc21` came in with an RP-LC retention time of 1020 s.

Compound `CCN(CC)S(=O)(=O)c1ccc2nc(Cl)cnc2c1` came in with an RP-LC retention time of 950 s.

`Cc1ccc2c(c1)N(S(C)(=O)=O)CCC(C(=O)Nc1ccc(F)c(Cl)c1)O2` (centres undefined) registered an RP-LC retention time of 998 s.

With `Cc1ccc(-c2noc(Cc3nnc(-c4ccccc4)o3)n2)cc1`, the RP-LC retention time stood at 1040 s.

Regarding `COc1cc(NC(=O)C2CCCN(c3nccnc3Sc3ccccc3)C2)cc(OC)c1OC` (centres undefined), the RP-LC retention time was 984 s.

On to `Cn1cc2c(n1)c(=O)n(Cc1ccc(F)cc1)c(=O)n2CC(=O)Nc1cc(F)ccc1F`, for which the RP-LC retention time was 841 s.

As for `CCC(=O)N1CCc2cc(CNS(=O)(=O)c3ccc(OC)cc3)ccc21`, the RP-LC retention time turned out to be 812 s.

Regarding `O=C(C1=CN(c2ccccc2)c2cc(F)ccc2S1(=O)=O)N1CCCCC1`, the RP-LC retention time was found to be 882 s.

As to `CC(C)CNC(=O)C1CCCN(c2cnc3nccnc3c2)C1` (centres undefined), the RP-LC retention time was determined as 658 s.

With `COc1ccc(-c2cc3nn(CC(=O)Nc4cccc(OC)c4)c(=O)n3c(C)n2)cc1`, the RP-LC retention time was 681 s.

`Cn1nc(-c2nnc(-c3ccccc3)o2)c2c1CCN(S(=O)(=O)c1ccc3c(c1)CCCC3)C2` gave an RP-LC retention time of 1110 s.

The compound `CCCN(C)S(=O)(=O)c1cc(-c2nnc(C)o2)co1` had an RP-LC retention time of 768 s.

`CCOC(=O)N1CCN(CC(O)COc2ccc(Cl)cc2Cl)CC1` (centres undefined) returned an RP-LC retention time of 589 s.

Compound `Cc1ccc2nc(NC(=O)CSc3nnc(CNC(=O)c4ccco4)o3)sc2c1` showed an RP-LC retention time of 705 s.

The compound `CCc1ccccc1NC(=O)Cn1c(CC)nc2c(c1=O)CN(Cc1ccccc1)CC2` had an RP-LC retention time of 666 s.

Regarding `COc1cccc(OC)c1OCCNCC1COc2ccccc2O1` (centres undefined), the RP-LC retention time stood at 767 s.

The compound `O=C(c1cc2cc(Cl)ccc2[nH]1)N1CCOCC1` displayed an RP-LC retention time of 860 s.

In the case of `COc1ccc(-n2nc3c(c2N)CSC3)cc1`, the RP-LC retention time amounted to 629 s.

The compound `COc1ccc(S(=O)(=O)N2CC3CN(C(=O)C4CCCCC4)CC(C2)O3)cc1` returned an RP-LC retention time of 850 s.

Take `O=C(c1cccnn1)N1CC(F)(F)C[C@H]1c1nnc(-c2ccccc2)o1`: the RP-LC retention time stood at 746 s.

Consider `Cc1ccc(-c2cc(C(=O)N3CCC(NC(=O)c4ccc5c(c4)OCO5)CC3)[nH]n2)c(C)c1`, for which the RP-LC retention time turned out to be 787 s.

`Cc1ccc(C2=NC3(CCN(C(=O)c4ccc[nH]4)CC3)ON2)cc1` displayed an RP-LC retention time of 747 s.

For `CCCc1noc(-c2ccc3nnc(CC(=O)Nc4ccccc4F)n3c2)n1`, the RP-LC retention time amounted to 872 s.

`CCCn1cc(C2=CCN(C(=O)NCc3ccc(OC)cc3)CC2)c2cccnc21` registered an RP-LC retention time of 888 s.

`CN1C(=O)c2cccn2CC1CNC(=O)c1nccn1C` (centres undefined) registered an RP-LC retention time of 573 s.

`Cc1cc(C(=O)Nc2ccc3c(c2)N(S(=O)(=O)c2ccc(F)cc2)CCC3)c(C)o1` gave an RP-LC retention time of 1010 s.

As to `O=C(c1ccc(F)cc1F)N1CCN(c2nc(CN3CCCC3)cs2)CC1`, the RP-LC retention time stood at 613 s.

Consider `C=CCN1C(=O)C(C)(C)COc2ccc(NC(=O)Oc3ccccc3)cc21`, for which the RP-LC retention time stood at 960 s.

For `CCOC(=O)N1CCN(c2ncc(S(=O)(=O)c3ccc(Cl)cc3)c(N)n2)CC1`, the RP-LC retention time was 910 s.

`O=C(CSc1ncc(-c2cccc(Cl)c2)o1)Nc1ccccc1C(F)(F)F` returned an RP-LC retention time of 1070 s.

`Cc1ccc2ncn(C3CCN(S(=O)(=O)c4ccc(C)c(C)c4)CC3)c(=O)c2c1` came in with an RP-LC retention time of 998 s.

In the case of `Cc1cc(C)cc(-n2c(SCC(=O)Nc3nc(C)cs3)nc3c(c2=O)SCC3)c1`, the RP-LC retention time is 825 s.

In the case of `Cc1ccc2cc(CCC(=O)N3CCN(C4CCCCC4)CC3)c(=O)[nH]c2c1`, the RP-LC retention time was 610 s.

As to `COc1ccccc1C(=O)Nc1c(-c2ccc(F)cc2)nc2ccccn12`, the RP-LC retention time turned out to be 676 s.

`COc1ccc(C)cc1NC(=O)Cc1csc2nc(-c3cccc(Br)c3)cn12` displayed an RP-LC retention time of 1060 s.

`CC1CCN(c2nc(-c3ccc(Cl)cc3)nc3ccccc23)CC1` yielded an RP-LC retention time of 947 s.

`O=C(COc1ccc(Cl)cc1)Nc1ccc(-c2cn3c(n2)SCC3)cc1` had an RP-LC retention time of 627 s.

`COc1ccc(CN2C(=O)CSc3c(c4ccccc4n3C)C2C(=O)NCCCOC(C)C)cc1` (centres undefined) returned an RP-LC retention time of 884 s.
